{"source": "patent US20140190496A1", "about": "“METHODS AND DEVICES FOR COMPOUND DELIVERY” (priority 2012, published 2014)", "key": {"[1]": {"experiment": "Particle size diameter of aerosols from ENT-100-A/B/C devices with wire coil heater elements and bypass inlets", "format": "physicochemical", "settings": "1 sec, listed as propylene glycol formulation", "description": "This example describes the particle size diameters (PSD) of aerosols generated from a device comprising a heater element comprising a wire coil. […] The “A Coil” comprises a stretch of coil followed by a straight lead on either end of the coil which connects to the brass contacts. The “B Coil” comprises a stretch of coil, wherein the coil itself connects to the brass contacts."}, "[2]": {"experiment": "Particle size diameter, ENT-100-D, heater element leads lengthened, with or without MARK V adder", "format": "physicochemical", "settings": "foam replaced w/SS screen, flow 2.04-2.06 LPM, 2 amps", "description": "This example describes the particle size diameters (PSD) of aerosols generated from a heater element as described in FIG. 36. The length of the leads in this example is 0.70 inches (about 17.78 mm). The heater element is inserted into the device depicted in FIG. 31D. […] In this example, the liquid formulation comprises propylene glycol and it wicks onto the ends of the wire of the heater element and onto the brass contacts."}, "[3]": {"experiment": "Aerosol particle size from test apparatus with wire coil heater element", "format": "physicochemical", "settings": "stainless steel coil heater, 3.5 coils; air flow 2 Liters/min; dose 1 mg; 2.5 Amps; 1 second"}, "[4]": {"experiment": "Effect of gravity (device rotation) on particle size diameter, ENT-100-D", "format": "physicochemical", "settings": "ENT-100-D loaded with 2 mg; device rotated 90 degrees in all dimensions from baseline", "description": "The device is rotated 90 degrees in all dimensions from a stable baseline position. […] As a result, the device produces particles of a consistent size regardless of the orientation in space of the device."}, "[5]": {"experiment": "Aerosol particle size from test airway apparatus with stainless steel foil heater element", "format": "physicochemical", "settings": "dose 1 mg", "description": "A hole to deposite drug (2706a) is provided and foil is shown (2708a). Brass contacts (2710a) are provided."}, "[6]": {"settings": "cited from earlier work"}}, "note": "Several values for one entry are separate records, joined by “and”; a condition that tells them apart may be missing. Equal entries are not always repeated.", "data": [{"smiles": "CC(O)CO", "note": "(stereo not shown) [PG, propylene glycol]", "values": [{"measurement": "PSD (microns)", "setting": "[1]; B Coil, dose 2 mg, 2.0 amps, heater element moved aft, B configuration (total flow 12 LPM), flow 1.5-1.60 LPM, flow 1.5 LPM", "result": "1.7-1.8 microns"}, {"measurement": "PSD (microns)", "setting": "[1]; B Coil, dose 2 mg, 2.0 amps, heater element moved aft, B configuration (total flow 12 LPM), flow 1.5-1.60 LPM, flow 1.60 LPM", "result": "1.7-1.75 microns"}, {"measurement": "PSD (microns)", "setting": "[1]; ENT-100-B with B Coil, dose 2 mg, 2.0 amps, bypass untaped, total flow ~8.5 LPM, flow 1.5-1.52 LPM, flow 1.5 LPM", "result": "1.8-1.9 microns"}, {"measurement": "PSD (microns)", "setting": "[1]; ENT-100-B with B Coil, dose 2 mg, 2.0 amps, with stainless steel (SS) screen to even flow, flow 1.55-1.56 LPM, flow 1.56 LPM", "result": "2.6-2.9 microns"}, {"measurement": "PSD (microns)", "setting": "[1]; ENT-100-C, new heater element .032 ID 0.100 stretch, 2 mg dose, flow 2.04 LPM, 2.6 amps", "result": "2.0-2.5 microns and 2.0-2.2 microns and 2.1-2.3 microns and 2.1-2.2 microns"}, {"measurement": "PSD (microns)", "setting": "[2]; flow 2.04 LPM", "result": "2.7-3.0 microns and 2.8-3.0 microns"}, {"measurement": "PSD (microns)", "setting": "[2]; flow 2.05 LPM", "result": "2.6-2.8 microns"}, {"measurement": "PSD (microns)", "setting": "[2]; flow 2.06 LPM", "result": "3.0-3.1 microns"}, {"measurement": "Particle Size Diameter (microns)", "setting": "[3]", "result": "1.5-2.2 microns"}, {"measurement": "particle size diameter at each rotation", "setting": "[4]", "result": "found not to change"}, {"measurement": "Particle Size Diameter (microns)", "setting": "[5]; heater element thickness 0.0005 inches, air flow 1 Liters/min, 6 Amps, heating 1 second", "result": "2.1-3 microns"}, {"measurement": "Particle Size Diameter (microns)", "setting": "[5]; heater element thickness 0.0005 inches, air flow 1 Liters/min, 8 Amps, heating 0.5 seconds", "result": 2, "unit": "microns"}, {"measurement": "Particle Size Diameter (microns)", "setting": "[5]; heater element thickness 0.001 inches, air flow 1 Liters/min, 8 Amps, heating 0.7 seconds", "result": 1, "unit": "microns"}, {"measurement": "Particle Size Diameter (microns)", "setting": "[5]; heater element thickness 0.001 inches, air flow 3 Liters/min, 7 Amps, heating 1 second", "result": "1.8 microns and 2 microns and 1.5-1.8 microns and 1.4-1.8 microns"}, {"measurement": "Particle Size Diameter (microns)", "setting": "[5]; heater element thickness 0.001 inches, air flow 3 Liters/min, 10 Amps, heating 1 second", "result": "1 microns and 0.9 microns"}, {"measurement": "Particle Size Diameter (microns)", "setting": "[5]; heater element thickness 0.001 inches, air flow 6 Liters/min, 10 Amps, heating 1 second", "result": "0.6 microns and 0.6-0.8 microns"}, {"measurement": "Particle Size Diameter (microns)", "setting": "[5]; heater element thickness 0.001 inches, air flow 12 Liters/min, 10 Amps, heating 1 second", "result": 0.5, "unit": "microns"}]}, {"smiles": "CN1CCCC1c1cccnc1", "note": "(stereo not shown) [nicotine]", "values": [{"measurement": "time to achieve peak increments of plasma nicotine concentration", "setting": "[6]; smoking a cigarette", "result": "≤ 10", "unit": "min"}, {"measurement": "peak increments of plasma nicotine concentration", "setting": "[6]; smoking a single cigarette", "result": "5 to 30", "unit": "ng/mL"}]}]}
